CC(C)(Oc1ccc(C2CC2(Cl)Cl)cc1)C(=O)O (stereo not given)
solubility (mole fraction)
Settings	278.15 K	283.15 K	288.15 K	293.15 K	298.15 K	303.15 K	308.15 K	313.15 K	318.15 K	323.15 K
in DMF	0.218	0.236	0.257	0.277	0.296	0.319	0.342	0.365	0.385	0.407
in ethanol	0.156	0.171	0.187	0.203	0.219	0.239	0.259	0.277	0.294	0.312
in ethylene glycol	0.0348	0.0395	0.044	0.0486	0.053	0.0592	0.0652	0.0711	0.077	0.0823
in n-propanol	0.0758	0.0854	0.0948	0.104	0.113	0.125	0.137	0.148	0.159	0.169
in water	5.95e-07	7.63e-07	9.11e-07	1.1e-06	1.31e-06	1.54e-06	1.77e-06	2.05e-06	2.33e-06	2.65e-06
